# ChEMBL document CHEMBL1201862, “PubChem BioAssay data set” (2004)
#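 Five compound concentrations were applied to cells in 96-well plates for 48 hours; endpoints were derived by simple linear interpolation of the resulting dose-response curve. At the GI50, growth is halved.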 Active and inactive are the calls of the source. Rule as the data show it: active = GI50 up to about 1.1 µM and inactive = higher.
# Experiments:
# Test in all cases: NCI tumour cell line growth inhibition, 48 h
# [1] = tested on: 786-0
# [2] = tested on: KM12
# [3] = tested on: RXF 631
# [4] = tested on: NCI-H23
# [5] = tested on: HL-60
# [6] = tested on: SNB-75
# [7] = tested on: ACHN
# [8] = tested on: M14
# [9] = tested on: DMS-273
# [10] = tested on: HT-29
# [11] = tested on: SK-OV-3
# [12] = tested on: HOP-62
# [13] = tested on: SK-MEL-28
# [14] = tested on: OVCAR-4
# [15] = tested on: HCT-15
# [16] = tested on: K562
# [17] = tested on: SF-295
# [18] = tested on: HOP-92
# [19] = tested on: SNB-19
# [20] = tested on: Malme-3M
# [21] = tested on: U-251
# [22] = tested on: SR
# [23] = tested on: MOLT-4
# [24] = tested on: NCI-H522
# [25] = tested on: DMS-114
# [26] = tested on: DLD-1
# [27] = tested on: OVCAR-3
# [28] = tested on: LXFL 529
# [29] = tested on: IGROV-1
# [30] = tested on: SK-MEL-5
# [31] = tested on: HOP-18
# [32] = tested on: SK-MEL-2
# [33] = tested on: CAKI-1
# [34] = tested on: HCT-116
# [35] = tested on: NCI-H460
# [36] = tested on: UACC-257
# [37] = tested on: UACC-62
# [38] = tested on: A498
# [39] = tested on: HCC 2998
# [40] = tested on: OVCAR-5
# [41] = tested on: TK-10
# [42] = tested on: SW-620
# [43] = tested on: A549
# [44] = tested on: OVCAR-8
# [45] = tested on: RXF 393
# [46] = tested on: LOX IMVI
# [47] = tested on: SN12C
# [48] = tested on: RPMI-8226
# [49] = tested on: SF-539
# [50] = tested on: KM-20L2
# [51] = tested on: NCI-H226
# [52] = tested on: UO-31
# [53] = tested on: CCRF-CEM
# [54] = tested on: COLO 205
# [55] = tested on: SNB-78
# [56] = tested on: SF-268
# [57] = tested on: EKVX
# [58] = tested on: M19-MEL
compound,measurement,setting,value
Cn1c2cc(O)cc(O)c2c(=O)c2c([N+](=O)[O-])cccc21,GI50,[1],> 100 µM (inactive)
same,GI50,[2],> 100 µM (inactive)
same,GI50,[3],> 100 µM (inactive)
same,GI50,[4],> 100 µM (inactive)
same,GI50,[5],> 100 µM (inactive)
same,GI50,[6],> 100 µM (inactive)
same,GI50,[7],> 100 µM (inactive)
same,GI50,[8],> 100 µM (inactive)
same,GI50,[9],> 100 µM (inactive)
same,GI50,[10],> 100 µM (inactive)
same,GI50,[11],> 100 µM (inactive)
same,GI50,[12],> 100 µM (inactive)
same,GI50,[13],> 100 µM (inactive)
same,GI50,[14],> 100 µM (inactive)
same,GI50,[15],> 100 µM
same,GI50,[16],> 100 µM (inactive)
same,GI50,[17],> 100 µM (inactive)
same,GI50,[18],> 100 µM (inactive)
same,GI50,[19],> 100 µM (inactive)
same,GI50,[20],> 100 µM (inactive)
same,GI50,[21],> 100 µM (inactive)
same,GI50,[22],> 100 µM (inactive)
same,GI50,[23],> 100 µM (inactive)
same,GI50,[24],> 100 µM (inactive)
same,GI50,[25],> 100 µM (inactive)
same,GI50,[26],> 100 µM (inactive)
same,GI50,[27],> 100 µM (inactive)
same,GI50,[28],> 100 µM (inactive)
same,GI50,[29],> 100 µM (inactive)
same,GI50,[30],> 100 µM (inactive)
same,GI50,[31],> 100 µM (inactive)
same,GI50,[32],> 100 µM (inactive)
same,GI50,[33],> 100 µM (inactive)
same,GI50,[34],> 100 µM (inactive)
same,GI50,[35],> 100 µM (inactive)
same,GI50,[36],> 100 µM (inactive)
same,GI50,[37],> 100 µM (inactive)
same,GI50,[38],> 100 µM (inactive)
same,GI50,[39],> 100 µM (inactive)
same,GI50,[40],> 100 µM (inactive)
same,GI50,[41],> 100 µM (inactive)
same,GI50,[42],> 100 µM (inactive)
same,GI50,[43],> 100 µM (inactive)
same,GI50,[44],> 100 µM (inactive)
same,GI50,[45],> 100 µM (inactive)
same,GI50,[46],> 100 µM (inactive)
same,GI50,[47],> 100 µM (inactive)
same,GI50,[48],> 100 µM (inactive)
same,GI50,[49],> 100 µM (inactive)
same,GI50,[50],> 100 µM (inactive)
same,GI50,[51],> 100 µM (inactive)
same,GI50,[52],> 100 µM (inactive)
same,GI50,[53],> 100 µM (inactive)
same,GI50,[54],> 100 µM (inactive)
same,GI50,[55],> 100 µM (inactive)
same,GI50,[56],> 100 µM (inactive)
same,GI50,[57],> 100 µM (inactive)
O=C(C#Cc1cnc(O)nc1O)c1ccccc1,GI50,[1],12.2 µM (inactive)
same,GI50,[2],15.2 µM (inactive)
same,GI50,[3],14 µM (inactive)
same,GI50,[4],13.7 µM (inactive)
same,GI50,[5],3.3 µM (inactive)
same,GI50,[6],18.2 µM (inactive)
same,GI50,[7],14.5 µM (inactive)
same,GI50,[8],5.2 µM (inactive)
same,GI50,[9],14.9 µM (inactive)
same,GI50,[10],21.8 µM (inactive)
same,GI50,[11],27.3 µM (inactive)
same,GI50,[58],9.48 µM (inactive)
same,GI50,[12],18.5 µM (inactive)
same,GI50,[13],10.9 µM (inactive)
same,GI50,[14],14.1 µM (inactive)
same,GI50,[15],12.3 µM
same,GI50,[16],2.98 µM (inactive)
same,GI50,[17],35.9 µM (inactive)
same,GI50,[18],13.2 µM (inactive)
same,GI50,[19],17.3 µM (inactive)
same,GI50,[20],3.34 µM (inactive)
same,GI50,[21],13.9 µM (inactive)
same,GI50,[23],2.48 µM (inactive)
same,GI50,[25],15.1 µM (inactive)
same,GI50,[26],11.3 µM (inactive)
same,GI50,[27],2.09 µM (inactive)
same,GI50,[29],17.9 µM (inactive)
same,GI50,[30],12.7 µM (inactive)
same,GI50,[31],15.7 µM (inactive)
same,GI50,[32],12.1 µM (inactive)
same,GI50,[33],18.2 µM (inactive)
same,GI50,[34],7 µM (inactive)
same,GI50,[35],14.1 µM (inactive)
same,GI50,[36],11.5 µM (inactive)
same,GI50,[37],7.28 µM (inactive)
same,GI50,[38],15.5 µM (inactive)
same,GI50,[39],18.3 µM (inactive)
same,GI50,[40],18.9 µM (inactive)
same,GI50,[41],13.8 µM (inactive)
same,GI50,[42],6.76 µM (inactive)
same,GI50,[43],24.7 µM (inactive)
same,GI50,[44],10.5 µM (inactive)
same,GI50,[45],1.7 µM (inactive)
same,GI50,[46],4.42 µM (inactive)
same,GI50,[47],4.37 µM (inactive)
same,GI50,[48],7.76 µM (inactive)
same,GI50,[49],4.04 µM (inactive)
same,GI50,[51],24.8 µM (inactive)
same,GI50,[52],17.4 µM (inactive)
same,GI50,[53],1.97 µM (inactive)
same,GI50,[54],7.23 µM (inactive)
same,GI50,[55],10.4 µM (inactive)
same,GI50,[56],13.6 µM (inactive)
same,GI50,[57],12 µM (inactive)
